The text below walks through data of patent publication US7879861B2, “Combi-molecules having EGFR and DNA targeting properties” (priority 2005, dated 2011).

Values joined by “and” are separate entries in the source; they are usually repeats but may differ in a detail not shown here. Equal values may be shown once. Read-outs that look alike come from different tables or passages of the source.

A short description of series [1]: Water solubility. It is filed as physicochemical.
The subject of series [2] is MAPK (Erk1, 2). As to the kind of experiment: Heregulin-stimulated MAPK phosphorylation in MDA-MB-453 cells (Western blot). It is filed as cell-based, human. How it is done: (§1) Autophosphorylation assay: Inhibition of receptor autophosphorylation in viable cells was determined by anti-phosphotyrosine Western blots as previously described (19). […] Equal amounts of cell lysates were analyzed by Western blot using anti-phosphotyrosine antibodies. Membranes were stripped of anti-phosphotyrosine and reprobed with anti-EGFR or anti-erbB2 antibodies (NeoMarkers, Fremont, Calif.). To study whether an inhibition is reversible or not, duplicate sets of cells were treated with 2 μM of designated compound for 2 h. One set of cells was then stimulated with EGF. The other set of cells was washed free of the compound with warmed serum-free media, incubated for 2 h, washed again, incubated for another 2 h, and incubated for a further 4 h after a subsequent wash. This set of cells was then stimulated with EGF. Western blot was performed as previously described. […] The membrane was incubated with anti-phosphorylated MAPK (Erk1,2) or anti-Erk 1,2 antibodies (Cell Signaling Technology Inc., Beverly, Mass.).

In series [3] the target is EGFR (Homo sapiens, UniProt P00533). Description: Reversibility of EGFR autophosphorylation inhibition in MDA-MB-468 cells (washout, 8 h). The format is cell-based. On the set-up: EGF-induced EGFR autophosphorylation in MDA-MB-468 cells; endogenous in cells; host or cells: MDA-MB-468 (ATCC).
Procedure: To test this hypothesis, the reversibility assay described by Fry et al. (13) and Smaill et al. (14) was used, according to which the cells are treated with inhibitors (2 μM) for 2 h and then washed free of drug. After 8 h, EGF was added; after a 10-min incubation the cells were lysed, and the degree of EGFR autophosphorylation measured.
For series [4], the system named is MAPK (Erk1, 2). As to the kind of experiment: EGF-stimulated MAPK phosphorylation in MDA-MB-468 cells (Western blot). It is filed as cell-based, human. To be noted: at concentrations as low as 1 μM. How it is done: as §1
A general note: In western blotting, separated proteins are transferred to a membrane and probed.

The nature of series [5]: Chemical stability of combi-molecules. The format is physicochemical.
Series [6] has as its target T1, erbB2 (Homo sapiens, UniProt P04626).
T1 construct: heregulin-induced autophosphorylation in MDA-MB-453 cells; endogenous in cells; host or cells: MDA-MB-453 (ATCC)
As to the kind of experiment: Heregulin-induced autophosphorylation in MDA-MB-453 cells (Western blot). It is filed as cell-based. The settings on record: 2 h preincubation, heregulin 10 min. How it is done: as §1

In series [7] the test system is NIH3T3HER14 cells. As to the kind of experiment: Growth factor-stimulated proliferation, SRB assay. It is filed as cell-based, mouse. The settings on record: 72 h. As to the method:
(§2) In vitro growth inhibition assay: To study the effect of the compounds on growth factor stimulated-proliferation, cells were grown to 70% of confluence in 48-well plates. They were subsequently washed twice with PBS, incubated in serum-free medium for 18 h and exposed to each drug+growth factors (EGF, TGFα, PDGF or serum) for 72 h. Cell growth was measured using the sulforhodamine B (SRB) assay (24). Briefly, following drug treatment, cells were fixed using 50 μl of cold trichloroacetic acid (50%) for 60 min at 4° C., washed five times with tap water, and stained for 30 min at room temperature with SRB (0.4%) and dissolved in acetic acid (0.5%). The plates were rinsed five times with 1% acetic acid and allowed to air dry. The resulting colored residue was dissolved in 200 μl of Tris base (10 mM), and the optical density read for each well at 450 nm using a Bio-Rad microplate reader (model 2550). […] Cell growth was measured using SRB assay as described previously.
In general terms: In SRB staining, fixed cells bind dye roughly in proportion to their protein.

For series [8], the system named is MDA-MB-468 cells. As to the kind of experiment: Annexin V binding (apoptosis), flow cytometry. It is filed as cell-based, human. How it is done: Annexin V Binding: Cells were grown in 6-well plates until confluence and then incubated with the compounds for 24 h, 48 and 72 h. The cells were then harvested, washed twice with PBS, and centrifuged. Cells (10^5) were treated with annexin V-FITC and propidium iodide (PI) using the Apoptosis Detection Kit (BD Bioscience Pharmingen, USA) and the supplier's protocol. Annexin V-FITC and PI binding were analyzed by flow cytometry. Data were collected using logarithmic amplification of both the FL1 (FITC) and FL2 (PI) channels. Quadrant analysis of co-ordinate dot plots was performed with CellQuest software. Unstained cells were used to adjust the photomultiplier voltage and for compensation setting adjustment in order to eliminate spectral overlap between the FL1 and FL2 signals.
(Flow cytometry measures light scatter and fluorescence of single cells or particles in a stream.)

In series [9] the test system is MDA-MB-468 cells. As to the kind of experiment: Reversibility of antiproliferative effect, SRB assay. The format is cell-based, human. How it is done:
as §2, with “They were subsequently washed twice with PBS, incubated in serum-free medium for 18 h and exposed to each drug+growth factors (EGF, TGFα, PDGF or serum) for 72 h.” left out

Series [10] relates to MDA-MB-453 cells. The series is described as above. The format is cell-based, human. As to the method: as §2, with “They were subsequently washed twice with PBS, incubated in serum-free medium for 18 h and exposed to each drug+growth factors (EGF, TGFα, PDGF or serum) for 72 h.” left out

EGFR, sequence (P00533 25-1210): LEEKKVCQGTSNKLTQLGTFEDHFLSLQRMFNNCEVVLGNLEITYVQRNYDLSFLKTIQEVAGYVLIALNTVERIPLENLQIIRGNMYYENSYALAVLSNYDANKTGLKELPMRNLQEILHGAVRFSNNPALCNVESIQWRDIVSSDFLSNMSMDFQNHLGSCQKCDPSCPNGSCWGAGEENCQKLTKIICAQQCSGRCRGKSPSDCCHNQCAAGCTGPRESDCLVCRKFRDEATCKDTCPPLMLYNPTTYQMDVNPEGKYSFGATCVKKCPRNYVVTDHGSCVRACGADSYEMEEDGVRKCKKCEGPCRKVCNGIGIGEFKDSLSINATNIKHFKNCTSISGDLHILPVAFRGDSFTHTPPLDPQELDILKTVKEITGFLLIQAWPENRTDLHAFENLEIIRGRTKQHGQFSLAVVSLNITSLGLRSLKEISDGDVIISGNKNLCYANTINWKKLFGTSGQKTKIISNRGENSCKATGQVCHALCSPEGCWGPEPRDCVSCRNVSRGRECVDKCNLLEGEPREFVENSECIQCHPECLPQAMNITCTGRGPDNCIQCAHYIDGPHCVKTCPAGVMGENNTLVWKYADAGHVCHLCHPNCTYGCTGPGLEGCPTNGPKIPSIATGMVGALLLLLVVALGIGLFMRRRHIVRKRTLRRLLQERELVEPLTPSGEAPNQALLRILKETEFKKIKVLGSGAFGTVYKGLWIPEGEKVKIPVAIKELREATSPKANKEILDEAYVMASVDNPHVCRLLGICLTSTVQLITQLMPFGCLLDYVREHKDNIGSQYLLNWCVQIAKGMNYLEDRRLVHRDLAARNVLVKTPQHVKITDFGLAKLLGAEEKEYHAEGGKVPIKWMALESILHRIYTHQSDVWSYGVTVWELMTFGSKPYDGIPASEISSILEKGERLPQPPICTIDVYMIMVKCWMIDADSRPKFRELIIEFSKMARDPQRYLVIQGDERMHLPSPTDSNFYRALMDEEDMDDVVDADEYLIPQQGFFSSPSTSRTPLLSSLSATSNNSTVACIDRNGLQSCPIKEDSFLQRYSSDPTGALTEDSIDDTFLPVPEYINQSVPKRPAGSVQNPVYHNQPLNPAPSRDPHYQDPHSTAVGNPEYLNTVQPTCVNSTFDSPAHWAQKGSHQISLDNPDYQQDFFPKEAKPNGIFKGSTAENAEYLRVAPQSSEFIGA
T1 sequence (P04626 23-1255): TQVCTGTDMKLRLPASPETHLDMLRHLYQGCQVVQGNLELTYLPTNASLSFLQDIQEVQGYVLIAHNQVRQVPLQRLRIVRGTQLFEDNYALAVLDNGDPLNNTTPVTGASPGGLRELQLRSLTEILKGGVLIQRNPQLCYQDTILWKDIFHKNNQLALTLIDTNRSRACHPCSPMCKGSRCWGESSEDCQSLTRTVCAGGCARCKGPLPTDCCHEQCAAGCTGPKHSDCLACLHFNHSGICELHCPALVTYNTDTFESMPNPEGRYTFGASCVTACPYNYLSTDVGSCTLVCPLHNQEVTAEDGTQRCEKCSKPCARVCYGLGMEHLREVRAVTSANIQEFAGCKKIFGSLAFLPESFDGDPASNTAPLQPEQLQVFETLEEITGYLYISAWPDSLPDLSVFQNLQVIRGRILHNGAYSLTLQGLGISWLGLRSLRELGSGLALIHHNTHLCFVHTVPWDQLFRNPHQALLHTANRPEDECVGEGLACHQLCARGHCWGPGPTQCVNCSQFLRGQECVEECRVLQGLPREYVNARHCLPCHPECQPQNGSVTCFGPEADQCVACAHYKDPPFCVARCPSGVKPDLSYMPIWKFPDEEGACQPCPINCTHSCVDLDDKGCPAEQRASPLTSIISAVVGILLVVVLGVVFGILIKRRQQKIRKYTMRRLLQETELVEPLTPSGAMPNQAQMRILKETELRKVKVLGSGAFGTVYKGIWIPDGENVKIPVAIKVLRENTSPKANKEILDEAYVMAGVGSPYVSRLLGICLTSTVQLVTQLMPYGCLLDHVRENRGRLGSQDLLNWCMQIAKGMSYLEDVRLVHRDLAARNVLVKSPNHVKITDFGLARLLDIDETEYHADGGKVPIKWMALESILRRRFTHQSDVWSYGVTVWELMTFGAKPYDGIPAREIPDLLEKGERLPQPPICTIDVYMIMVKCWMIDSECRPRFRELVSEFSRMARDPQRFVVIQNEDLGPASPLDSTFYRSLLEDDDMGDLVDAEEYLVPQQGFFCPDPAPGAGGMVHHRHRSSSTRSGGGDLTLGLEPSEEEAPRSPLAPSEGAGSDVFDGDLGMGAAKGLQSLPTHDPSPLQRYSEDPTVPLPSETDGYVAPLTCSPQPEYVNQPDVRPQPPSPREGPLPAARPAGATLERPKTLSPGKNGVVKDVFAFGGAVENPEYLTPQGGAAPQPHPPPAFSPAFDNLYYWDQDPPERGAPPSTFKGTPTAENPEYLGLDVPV

In general, IC50 refers to the concentration needed to halve the response being measured. What is called inhibition is the drop in the measured response relative to a control, in per cent. In the case of `ClCCNc1ccc2ncnc(Nc3cccc(Br)c3)c2c1` [ZR2002], the “water solubility (in words)” value in series [1] was “reduced water solubility”. Also, the “heregulin-stimulated MAPK phosphorylation” value in [2] is listed as “blocked heregulin-stimulated MAPK phosphorylation”. The “mode of EGFR inhibition (reversible / irreversible)” value in [3] is on record as “irreversible inhibitor of EGFR”. Moreover, the “EGF-dependent EGFR autophosphorylation immediately after drug exposure” value in [3] (2 μM, 2 h) was “completely suppressed”. The “inhibition of EGF-stimulated phosphorylation of MAPK” value in series [4] was 100%. Also, the “chemical stability (in words)” value in series [5] was “stable compound that does not self-alkylate”. Besides, the 50% inhibitory concentration (IC50) is ~230 nM and 236 nM in [6]; 360 nM in series [9] (Homo sapiens, MDA-MB-468, 120 h, read-out: IC50, growth inhibition, 120 h continuous exposure, MDA-MB-468, SRB); 7400 nM in series [9] (Homo sapiens, MDA-MB-468, read-out: IC50, growth inhibition, 2 h exposure followed by 120 h recovery, MDA-MB-468, SRB); 5160 nM in series [9] (read-out: IC50, growth inhibition, 2 h exposure followed by 120 h recovery, MDA-MB-468, SRB); 234 nM in series [9] (read-out: IC50, growth inhibition, 120 h continuous exposure, MDA-MB-468, SRB); 430 nM in [10] (Homo sapiens, MDA-MB-453, 120 h, read-out: IC50, growth inhibition, 120 h continuous exposure, MDA-MB-453, SRB). Also, the IC50 in series [10] (Homo sapiens, MDA-MB-453, read-out: IC50, growth inhibition, 2 h exposure followed by 120 h recovery, MDA-MB-453, SRB) was found to be 4170 nM; in [10] (read-out: IC50, growth inhibition, 2 h exposure followed by 120 h recovery, MDA-MB-453, SRB), 4170 nM; in series [10] (read-out: IC50, growth inhibition, 120 h continuous exposure, MDA-MB-453, SRB), 426 nM. Also, in [7], the “EGF or TGFα-induced proliferation” value is listed as “selectively blocking”. Moreover, the inhibition at 1 µM in series [7] (Mus musculus, at 1 μM, read-out: inhibition of PDGF-stimulated growth) worked out at 100%. Also, the inhibition at 10 µM in [7] (Mus musculus, at concentrations >10 μM, read-out: inhibition of serum-stimulated growth) was found to be 100%. Moreover, the inhibition at 0.1 µM in [7] (Mus musculus, at concentrations as low at 0.1 μM, read-out: inhibition of EGF-stimulated growth) came out at 100%. In addition, in series [8], the “concentration at which detectable levels of apoptosis start” value amounted to 5 µM.
